Data: patent US20250214966A1, “Crystalline Salt Form Of A SHP2 Inhibitor” (Array BioPharma Inc., priority 2022, published 2025)
Like-named read-outs stand apart in the source and are kept apart here.

Legend:
Format in all cases: physicochemical
[1] = Dynamic vapor sorption of salts (Table 14); conditions: 25° C.; for DVS weight change: ramping 40-90% RH
Description: DVS (Table 14): Approximately, 10-20 mg of sample was placed into a mesh vapor sorption balance pan and loaded into a DVS Intrinsic dynamic vapor sorption balance by Surface Measurement Systems. The sample was subjected to a ramping profile from 40-90% relative humidity (RH) at 10% increments, maintaining the sample at each step until a stable weight had been achieved (dm/dt 0.004%, minimum step length 30 minutes, maximum step length 500 minutes) at 25° C. After completion of the sorption cycle, the sample was dried using the same procedure to 0% RH and then a second sorption cycle back to 40% RH. Two cycles were performed. Theweight change during the sorption/desorption cycles were plotted, allowing for the hygroscopic nature of the sample to be determined. XRPD analysis was then carried out on any solid retained. […] The sample was subjected to a ramping profile from 40-90% relative humidity (RH) at 10% increments, maintaining the sample at each step until a stable weight had been achieved (dm/dt 0.004%, minimum step length 30 minutes, maximum step length 500 minutes) at 25° C. After completion of the sorption cycle, the sample was dried using the same procedure to 0% RH and then a second sorption cycle back to 40% RH. Two cycles were performed. The weight change during the sorption/desorption cycles were plotted, allowing for the hygroscopic nature of the sample to be determined. XRPD analysis was then carried out on any solid retained.

[2] = Solubility of salts in buffer systems at 37° C. (Table 14); conditions: 20 mg in 1 mL; for solubility at 18 h: thermodynamic from solid
Description: The solubility (Table 14) was determined by adding 20 mg of salts (Examples 3 to 8) into 3 HPLC vials, to each vial, a magnetic stirrer bar was added along with 1 mL of the appropriate buffer system (pH 1.2 HCl, pH 4.5 sodium acetate, or pH 6.8 phosphate). The samples were agitated at 37° C. for […]. After 24 hours, the slurries were isolated by centrifugation filtration and isolated mother liquors were analyzed by HPLC.
HPLC method (Table 14): A Dionex Ultimate 3000 HPLC instrument was used with a Waters XSelect HSS T3 Column (100 angstrom, 4.6×150 mm, 5 μm). The column temperature was set to 20° C., the UV wavelength set to 254 nm, the injection volume was 10 μL, with a flow rate of 1.0 mL/min. 10 mM ammonium acetate adjusted to pH 4.8 was used as a mobile phase A, and acetonitrile was used as mobile phase B. The gradient method was set up to achieve 15% mobile phase B at 0 minutes, 95% mobile phase B at 17 minutes—held until 22 minutes, 15% mobile phase B at 22.1 minutes—held until 28 minutes.

[3] = TGA/DSC of salts (Table 14); conditions: 10° C./min
Description: TGA/DSC (Table 14): Approximately, 5-10 mg of material was added into a pre-tared open aluminum pan and loaded into a TA Instruments Discovery SDT 650 Auto—Simultaneous DSC and held at room temperature. The sample was then heated at a rate of 10° C./min from 20° C. (ambient) to 400° C. during which time the change in sample weight was recorded along with the heat flow response (DSC). Nitrogen was used as the sample purge gas, at a flow rate of 200 cm3/min.
DSC (Table 14): Approximately, 1-5 mg of material was weighed into an aluminum DSC pan and sealed nonhermetically with an aluminum lid. The sample pan was then loaded into a TA Instruments Discovery DSC 2500 differential scanning calorimeter equipped with a RC90 cooler. The sample and reference were heated to 310° C. at a scan rate of 10° C./min and the resulting heat flow response monitored. The sample was re-cooled to 20° C. and then reheated again to 205° C. all at 10° C./min. Nitrogen was used as the purge gas, at a flow rate of 50 cm^3/min.

[4] = pH 1.2 HCl buffer, simulated gastric fluid, pH 1.2 HCl, read-out: Solubility pH 1.2 HCl
[5] = pH 4.5 sodium acetate buffer, aqueous buffer, pH 4.5 sodium acetate, read-out: Solubility pH 4.5 Sodium Acetate
[6] = pH 6.8 phosphate buffer, aqueous buffer, pH 6.8 phosphate, read-out: Solubility Ph 6.8 Phosphate

Row | DVS hygroscopic nature [1] | DVS weight change [1] [%] | solubility at 18 h [2, 4] [µg/mL] | solubility at 18 h [2, 5] [µg/mL] | solubility at 18 h [2, 6] [µg/mL] | TGA/DSC Melt/degradation [3] [°C] | Solubility pH 1.2 HCl (mg/mL) ([2]; pH 1.2 HCl) | Solubility pH 4.5 Sodium Acetate ([2]; pH 4.5 sodium acetate) [mg/mL] | Solubility Ph 6.8 Phosphate ([2]; pH 6.8 phosphate) [µg/mL] | Structure (SMILES)
1 | Hygroscopic | 2.1 | > 20000 | 200 | 400 | 225.7 |  |  |  | Nc1nccc(Sc2cnc(N3CCC4(CC3)Cc3ccccc3[C@H]4N)nn2)c1Cl.O=C(O)/C=C/C(=O)O [Example 6, (S)-1′-(6-((2-Amino-3-chloropyridin-4-yl)thio)-1,2,4-triazin-3-yl)-1,3-dihydrospiro[indene-2,4′-piperidin]-1-amine fumarate]
2 | Hygroscopic | 5.8 | > 20000 | 400 | 1200 | 187 |  |  |  | Nc1nccc(Sc2cnc(N3CCC4(CC3)Cc3ccccc3[C@H]4N)nn2)c1Cl.O=C(O)C(O)C(O)C(=O)O [Example 7, (S)-1′-(6-((2-Amino-3-chloropyridin-4-yl)thio)-1,2,4-triazin-3-yl)-1,3-dihydrospiro[indene-2,4′-piperidin]-1-amine tartrate]
3 | Hygroscopic | 6.3 |  |  |  | 100 | >20 | 0.3 | 9300 | Nc1nccc(Sc2cnc(N3CCC4(CC3)Cc3ccccc3[C@H]4N)nn2)c1Cl.O=P(O)(O)O [Example 4, (S)-1′-(6-((2-Amino-3-chloropyridin-4-yl)thio)-1,2,4-triazin-3-yl)-1,3-dihydrospiro[indene-2,4′-piperidin]-1-amine phosphate (Pattern 1)]
4 | Hygroscopic | 7.6 |  |  |  | 174 | >20 | 0.4 | 1900 | Nc1nccc(Sc2cnc(N3CCC4(CC3)Cc3ccccc3[C@H]4N)nn2)c1Cl.O=P(O)(O)O [Example 5, (S)-1′-(6-((2-Amino-3-chloropyridin-4-yl)thio)-1,2,4-triazin-3-yl)-1,3-dihydrospiro[indene-2,4′-piperidin]-1-amine phosphate (Pattern 2)]
